Laboratory results as given in US6872557B1, “Gene encoding novel human secretory phospholipase A2” (Shionogi & Co., Ltd., priority 1999, dated 2005).

Legend:
[1] = molecular target: T1, human IIA type secretory PLA2 (Homo sapiens, UniProt P14555); experiment: Inhibition of secretory PLA2 activity, release of 14C-oleic acid from 14C-POPC; type: biochemical; details: 14C-POPC substrate, 40° C., 60 min, various concentrations of Indoxam; FIG. 4
T1 sequence (P14555 21-144): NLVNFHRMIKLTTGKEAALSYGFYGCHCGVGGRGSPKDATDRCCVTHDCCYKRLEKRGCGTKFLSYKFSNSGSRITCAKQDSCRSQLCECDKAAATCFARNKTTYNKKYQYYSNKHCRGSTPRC
Description: (§1) Inhibitory activity against this novel type of human secretory type PLA2 was determined with Indoxam that is a 1-oxamoylindolidine derivative. It has already been reported that Indoxam inhibits the enzymatic activities of IIA type and IB type secretory type PLA2 (Yokota et al., Biochim. Biophys. Acta (1999) 1438, 213-222). The PLA2 activities were determined by the measurement of the quantity of released ^14C-oleic acid from ^14C-labeled 1-palmitoyl-2-oleoyl-phosphatidylcholine (POPC), according to the Draheim et al.'s method (J. Med. Chem., (1996) 39, 5159-5175). In the solution composed of 50 mM Tris-HCl (pH 8.0), 200 mM NaCl, 2 mM CaCl2, and 1 mg/ml bovine serum albumin, the substrates composed of 1 mM POPC (the mixture of about 100,000 cpm ^14C-POPC and unlabeled POPC) and 3 mM deoxycholic acid were incubated with each secretory PLA2 in the presence of various concentrations of Indoxam at 40° C. for 60 min. Then, the quantity of released ^4C-oleic acid was measured. Purified materials were used in the case with human IB type (2 ng), IIA type (10 ng) and X type (4 ng). Human V type, IID type and the secretory type PLA2 of this invention (IIE type) were prepared from the culture supernatant of CHO cells that stably express them.
(§2) The quantity of released ^14C-oleic acid from ^14C-POPC by each human secretory type PLA2 in the absence of Indoxam was regarded as 100% and the quantity of released ^14C-oleic acid in the presence of each concentration of Indoxam was shown as %.

[2] = molecular target: T2, human IID type secretory PLA2 (Homo sapiens, UniProt Q9UNK4); experiment: as above; type: biochemical; details: 14C-POPC substrate, 40° C., 60 min, various concentrations of Indoxam; FIG. 4
T2 construct: made in house
T2 sequence (Q9UNK4 21-145): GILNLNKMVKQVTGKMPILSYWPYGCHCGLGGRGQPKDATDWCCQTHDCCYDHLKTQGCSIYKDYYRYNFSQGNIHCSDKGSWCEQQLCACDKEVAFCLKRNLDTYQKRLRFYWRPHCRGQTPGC
Description: as §1, §2

[3] = molecular target: T3, human secretory type PLA2 of this invention (IIE type) (Homo sapiens, UniProt Q9NZK7); experiment: as above; type: biochemical; details: 14C-POPC substrate, 40° C., 60 min, various concentrations of Indoxam; FIG. 4
T3 construct: made in house
T3 sequence (Q9NZK7 20-142): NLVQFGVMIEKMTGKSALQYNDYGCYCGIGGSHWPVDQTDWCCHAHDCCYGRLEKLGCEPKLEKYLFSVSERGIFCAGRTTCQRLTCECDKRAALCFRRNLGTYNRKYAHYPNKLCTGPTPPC
Description: as §1, §2

[4] = molecular target: T4, IIA type secretory type PLA2 (Homo sapiens, UniProt P14555); details: already reported, Yokota et al., Biochim. Biophys. Acta (1999) 1438, 213-222; cited from earlier work
T4 sequence (P14555 21-144): T1 sequence (P14555 21-144)

[5] = molecular target: IB type secretory type PLA2 (Homo sapiens, UniProt P04054); details: already reported, Yokota et al., Biochim. Biophys. Acta (1999) 1438, 213-222; cited from earlier work
Chain of IB type secretory type PLA2 (P04054 23-148): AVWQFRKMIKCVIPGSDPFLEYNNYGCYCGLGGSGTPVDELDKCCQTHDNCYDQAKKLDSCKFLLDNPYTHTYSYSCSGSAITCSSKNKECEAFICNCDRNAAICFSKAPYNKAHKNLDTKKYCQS

CCc1c(C(=O)C(N)=O)c2c(OCC(=O)O)cccn2c1Cc1ccccc1-c1ccccc1 [Indoxam]
inhibition of enzymatic activity of human IIA type PLA2 [1]: strongly inhibits
inhibition of enzymatic activity of human IID type PLA2 [2]: strongly inhibits
inhibition of enzymatic activity of human PLA2 of this invention (IIE type) [3]: strongly inhibits
inhibition of enzymatic activity of IIA type secretory type PLA2 [4]: inhibits
inhibition of enzymatic activity of IB type secretory type PLA2 [5]: inhibits
